Reference: PubChem BioAssay AID179 (DTP/NCI, 2004)
The source made the active and inactive calls.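 How the source made its calls: active means compounds giving half or more protection of infected cells from virus-caused growth loss, again on retest; inactive means the rest.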 Where a SMILES comes first, the peptide text is derived from it. The star is where a group is joined. Cbz = O=C(OCc1ccccc1)*; NHNH2 = NN*

System: CEM cells HIV-1 protection, formazan growth assay
Test: NCI AIDS Antiviral Assay
Conditions: for IC50: measured here: growth of uninfected CEM cells
Procedure: The ability of compounds to protect human CEM cells from HIV-1 infection is measured as a screen for new compounds capable of inhibiting the HIV virus. Five concentrations of drug were tested on uninfected and infected cells and cell growth was measured using a soluble formazan assay. […] Compounds that provided at least 50% protection were retested. Compounds that provided at least 50% protection on retest were listed as moderately active. Compounds that reproducibly provided 100% protection were listed as confirmed active. […] Note that the inability to provide protection could be due to toxicity.

Row | SMILES | EC50 [µM] | IC50 [µM] | outcome
1 | O=C(O)C1CC(C(=O)O)SS1 (configuration not stated) | > 1290 | > 1290 | –
2 | CCOc1ccc2nc(NC(=O)c3c/c(=N\NC(=O)C[N+](C)(C)C)c4ccc(O)cc4o3)sc2c1 | > 178 | 2.24 | –
3 | COc1c(OC)c(C=O)c2c(OC)c(-c3c(C)cc4c(C(C)C)c(OC)c(OC)c(C=O)c4c3OC)c(C)cc2c1C(C)C | – | – | inactive
4 | O=C(O)/C(=C/c1ccccc1[N+](=O)[O-])c1cccs1 | > 912 | 457 | –
5 | O=c1ccc2cc3ccoc3c(OCCOCCOCCOCCOc3c4occc4cc4ccc(=O)oc34)c2o1 | > 79.4 | 10.7 | –
6 | CC(C)N(C(=O)C12C3C4C5(C#N)C3C1(I)C5C42I)C(C)C (configuration not stated) | > 14.1 | > 14.1 | –
7 | CC(C)C12OC1CC13OC1C1OC1C1OC132 (configuration not stated) | > 200 | > 200 | –
8 | CN(C)CC1CCCCCCCCCCCCC(CN(C)C)C1=O (configuration not stated) | > 21.4 | > 21.4 | –
9 | CCCCC(CC)CO[Si](OCC(CC)CCCC)(OCC(CC)CCCC)OCC(CC)CCCC (configuration not stated) | – | – | inactive
10 | COC(=O)c1ccccc1COC(=O)c1cc(C(=CCC[C@H]2CC[C@@]3(C)[C@@H](CC[C@@H]4[C@@H]3CC[C@]3(C)[C@@H](C(C)CCCC(C)C)CC[C@@H]43)C2)c2cc(Cl)c(OCc3ccccc3C(=O)OC)c(C(=O)OCc3ccccc3C(=O)OC)c2)cc(Cl)c1OCc1ccccc1C(=O)OC (some centres not stated) | > 200 | > 200 | –
11 | Cc1c2ccccc2nc(CSOCCO)[n+]1[O-] | > 200 | > 200 | –
12 | CCCCCCCC(=O)c1ccc(O)c(C(=O)Nc2cccc(C(F)(F)F)c2)c1 | > 12.9 | 0.145 | –
13 | Cc1noc2cccc(O)c12 | – | – | inactive
14 | N#Cc1c2c(c(N=[N+]=[N-])n3c1nc1ccccc13)CCCC2 | > 4.68 | > 4.68 | –
15 | NNC(=O)C1CC2c3ccccc3C1c1ccccc12 (configuration not stated) | – | – | inactive
16 | C=C1CCC2(C)[C@H](C)CC[C@H](O)C2(CCC=C(C)C)[C@@H]1Cc1c[nH]c2ccccc12 (some centres not stated) | – | – | inactive
17 | S=C1N(/N=C/c2c3ccccc3cc3ccccc23)C(=Nc2ccccc2)C(=Nc2ccccc2)N1c1ccccc1 | > 200 | > 200 | –
18 | Cc1c(Cl)c(=O)oc2c3c(ccc12)OC(C)(C)[C@H](OC(=O)C12CCC(C)(C(=O)O1)C2(C)C)[C@@H]3OC(=O)C12CCC(C)(C(=O)O1)C2(C)C (some centres not stated) | 0.282 | 5.62 | –
19 | COC1(OC)CC(CO)(COc2cc(Cl)nc(N)n2)C1 | > 200 | > 200 | –
20 | NNC(=O)C(CCC(=O)O)NC(=O)C(CCC(=O)O)NC(=O)C(CCC(=O)O)NC(=O)CNC(=O)CNC(=O)OCc1ccccc1 (configuration not stated) (Cbz-GGEEE-NHNH2; configuration not given here) | > 200 | > 200 | –
21 | CN(C)c1ccc(C(c2c(O)c3ccccc3oc2=O)c2c(O)c3ccccc3oc2=O)cc1 | > 200 | 27.5 | –
22 | Cn1c(-c2ccccc2)cc(-c2ccsc2)c1-c1ccsc1 | > 200 | 158 | –

Row | SMILES | EC50 [µM] | IC50 [µM] | outcome
23 | Clc1cccc(C2=NOC3COC4C=CC=CC4OCC23)c1 (configuration not stated) | > 58.9 | > 58.9 | –
24 | CC12CCC(=O)C=C1CCC1C2CCC2(C)C1CCC2(O)C1(O)CCC2C3CCC4=CC(=O)CCC4(C)C3CCC21C (configuration not stated) | > 100 | 55 | –
25 | CCOC(=O)/C=C(\C)NCCSSCCN/C(C)=C/C(=O)OCC | > 200 | 50.1 | –
26 | CCOc1ccc(N=C2NC(=O)C(CC(=O)Nc3ccc(Cl)cc3Cl)S2)cc1 (configuration not stated) | > 214 | > 214 | –
27 | NC(=O)C(=O)c1ncn(Cc2ccccc2)c1N | > 200 | > 200 | –
28 | Cc1cc[n+]2n1CC(O)C2 (configuration not stated) | – | – | inactive
29 | COC(=O)C12C=CC(C(=O)OC)(CC1)n1c(=O)n(-c3ccccc3)c(=O)n12 | > 200 | > 200 | –
30 | CC(=O)O/N=C/c1ncccc1CO | > 490 | 389 | –
31 | O=c1cc(N=Nc2ccc(O)cc2)[nH]c(=O)[nH]1 | > 200 | 11.5 | –
32 | NN1CCc2ccccc2C1 | > 200 | > 200 | –
33 | CC(=O)NCCSS(=O)(=O)CCCCS(=O)(=O)SCCNC(C)=O | 117 | 214 | –
34 | CCN(CC)c1ccc(N=O)c(O)c1 | > 200 | 8.71 | –
35 | Cc1cc(C(F)(F)F)cc(-n2nc(NS(=O)(=O)c3cc(C)c(Cl)cc3S)nc2N)n1 | > 200 | 166 | –
36 | COC(=O)c1c(COC(=O)NC(C)C)c2n(c1C)CS(=O)(=O)C2 | > 200 | > 200 | –
37 | N#Cc1c(O)c2ccccc2[nH]c1=O | > 200 | > 200 | –
38 | CC(=O)N=S(NC(=O)c1ccc(C)cc1)C(Cl)(Cl)Cl (configuration not stated) | > 200 | 33.9 | –
39 | CC(C)(C)OC(=O)NC(Cc1cnc[nH]1)C(=O)N1CCCC1C(N)=O (configuration not stated) | > 200 | > 200 | –
40 | CCn1c(SCC(=O)NNC(=S)Nc2ccc(F)cc2)nc2ccccc2c1=O | > 200 | 129 | –
41 | NNc1ncnc(NN)c1Br | > 200 | 56.2 | –
42 | COC(=O)C1N=CSCC1(C)O (configuration not stated) | > 1320 | 186 | –
43 | CC(C)(C)OC(=O)N[C@H]1CCN(C2CCCCC2)C1=O | > 200 | > 200 | –
44 | CN(C)c1ccc(-c2nn(C)c3nc(=O)n(C)c(=O)c-3[n+]2[O-])cc1 | > 200 | 0.562 | –
